Measured values from ChEMBL document CHEMBL1123770, “Systematic synthesis and biological evaluation of alpha- and beta-D-lyxofuranosyl nucleosides of the five naturally occurring nucleic acid bases” (1987).
In brackets after ≈: the same amount, converted by molar mass.

Legend:
[1] = test system: HeLa; experiment: Minimum cytotoxic concentration (MCC) required to cause a microscopically detectable alteration of host cell morphology, when incubated with HeLa cells; format: functional; conditions: Homo sapiens
[2] = test system: WI-38; experiment: Minimum cytotoxic concentration (MCC) required to cause a microscopically detectable alteration of host cell morphology, when incubated with WI-38 cells; format: functional; conditions: Homo sapiens
[3] = Inhibitory effect on KOS strain of Herper simplex virus-1 yield, in primary rabbit kidney cell culture 40 ug/mL concentration after 48 hours.; format: functional, Oryctolagus cuniculus
[4] = Inhibitory effect on KOS strain of Herper simplex virus-1 yield, in primary rabbit kidney cell culture 100 ug/mL concentration after 48 hours.; format: functional, Oryctolagus cuniculus
[5] = test system: WI-38 (Homo sapiens); experiment: Minimum inhibitory concentration (MIC) required to reduce virus-induced cytopathogenicity by 50% against Rhinovirus-1A in human diploid (WI-38)cells
[6] = organism: Mus musculus; experiment: Number of mice dead after HSV-1 infection observed from day 12 to day 20; format: functional
[7] = organism: Mus musculus; experiment: Number of mice normal, without lesion after HSV-2 infection observed from day 12 to day 20; format: functional
[8] = organism: Mus musculus; experiment: Number of mice normal, without lesion after HSV-2 infection observed from day 0 to day 3; format: functional
[9] = organism: Mus musculus; experiment: Survival rate at 20th day expressed as number of mice survived infected with HSV-2; out of 10; format: functional
[10] = test system: Vero; experiment: Minimum inhibitory concentration (MIC) required to reduce virus-induced cytopathogenicity by 50% against Parainfluenza virus-3 in African green monkey kidney (Vero B)cells; format: functional, Chlorocebus sabaeus
[11] = organism: Mus musculus; experiment: Survival rate at 20th day expressed as number of mice survived infected with HSV-1; out of 10; format: functional
[12] = Inhibitory effect on 196 strain of Herper simplex virus-2 yield, in primary rabbit kidney cell culture 400 ug/mL concentration after 24 hours.; format: functional, Oryctolagus cuniculus
[13] = Inhibitory effect on 196 strain of Herper simplex virus-2 yield, in primary rabbit kidney cell culture 40 ug/mL concentration after 24 hours.; format: functional, Oryctolagus cuniculus
[14] = test system: WI-38; experiment: Minimum inhibitory concentration (MIC) required to reduce virus-induced cytopathogenicity by 50% against Rhinovirus 9 in human diploid (WI-38)cells; format: functional
[15] = test system: Vero; experiment: Minimum inhibitory concentration (MIC) required to reduce virus-induced cytopathogenicity by 50% against Coxsackie virus B4 in African green monkey kidney (Vero B)cells; format: functional, Chlorocebus sabaeus
[16] = organism: Oryctolagus cuniculus; experiment: Minimum inhibitory concentration (MIC) required to reduce virus-induced cytopathogenicity by 50% against KOS strain of Herpes simplex virus-1 in primary rabbit kidney cells; format: functional
[17] = Inhibitory effect on 196 strain of Herper simplex virus-2 yield, in primary rabbit kidney cell culture 400 ug/mL concentration after 48 hours.; format: functional, Oryctolagus cuniculus
[18] = test system: HeLa; experiment: Minimum inhibitory concentration (MIC) required to reduce virus-induced cytopathogenicity by 50% against Coxsackie virus B4 in HeLa cells; format: functional; conditions: Homo sapiens
[19] = Inhibitory effect on KOS strain of Herper simplex virus-1 yield, in primary rabbit kidney cell culture at 400 ug/mL concentration after 24 hours; format: functional, Oryctolagus cuniculus
[20] = Inhibitory effect on KOS strain of Herper simplex virus-1 yield, in primary rabbit kidney cell culture at 40 ug/mL concentration after 24 hours; format: functional, Oryctolagus cuniculus
[21] = Inhibitory effect on KOS strain of Herper simplex virus-1 yield, in primary rabbit kidney cell culture 400 ug/mL concentration after 48 hours.; format: functional, Oryctolagus cuniculus
[22] = test system: Vero; experiment: Minimum inhibitory concentration (MIC) required to reduce virus-induced cytopathogenicity by 50% against Sindbis virus in African green monkey kidney (Vero B)cells; format: functional; conditions: Chlorocebus sabaeus
[23] = Minimum cytotoxic concentration (MCC) required to cause a microscopically detectable alteration of host cell morphology, when incubated with PRK cells; format: functional; conditions: Oryctolagus cuniculus
[24] = organism: Mus musculus; experiment: Number of mice normal, without lesion after HSV-1 infection observed from day 12 to day 20; format: functional
[25] = organism: Oryctolagus cuniculus; experiment: Minimum inhibitory concentration (MIC) required to reduce virus-induced cytopathogenicity by 50% against G strain of Herpes simplex virus-2 in primary rabbit kidney cells; format: functional
[26] = organism: Oryctolagus cuniculus; experiment: Minimum inhibitory concentration (MIC) required to reduce virus-induced cytopathogenicity by 50% against Vaccinia virus in primary rabbit kidney cells; format: functional
[27] = test system: Vero; experiment: Minimum inhibitory concentration (MIC) required to reduce virus-induced cytopathogenicity by 50% against forest virus in African green monkey kidney (Vero B)cells; format: functional; conditions: Chlorocebus sabaeus
[28] = Inhibitory effect on 196 strain of Herper simplex virus-2 yield, in primary rabbit kidney cell culture 100 ug/mL concentration after 48 hours.; format: functional, Oryctolagus cuniculus
[29] = Inhibitory effect on 196 strain of Herper simplex virus-2 yield, in primary rabbit kidney cell culture 100 ug/mL concentration after 24 hours.; format: functional, Oryctolagus cuniculus
[30] = test system: Vero; experiment: Minimum inhibitory concentration (MIC) required to reduce virus-induced cytopathogenicity by 50% against Reo virus-1 in African green monkey kidney (Vero B)cells; format: functional, Chlorocebus sabaeus
[31] = organism: Mus musculus; experiment: Number of mice dead after HSV-2 infection observed from day 12 to day 20; format: functional
[32] = organism: Mus musculus; experiment: Number of mice normal, without lesion after HSV-1 infection observed from day 0 to day 3; format: functional
[33] = Inhibitory effect on KOS strain of Herper simplex virus-1 yield, in primary rabbit kidney cell culture at 100 ug/mL concentration after 24 hours; format: functional, Oryctolagus cuniculus
[34] = test system: Vero; experiment: Minimum cytotoxic concentration (MCC) required to cause a microscopically detectable alteration of host cell morphology, when incubated with Vero B cells; format: functional; conditions: Chlorocebus sabaeus
[35] = Inhibitory effect on 196 strain of Herper simplex virus-2 yield, in primary rabbit kidney cell culture 40 ug/mL concentration after 48 hours.; format: functional, Oryctolagus cuniculus
[36] = test system: HeLa; experiment: Minimum inhibitory concentration (MIC) required to reduce virus-induced cytopathogenicity by 50% against Vesicular stomatitis virus in HeLa cells; format: functional; conditions: Homo sapiens
[37] = test system: HeLa; experiment: Minimum inhibitory concentration (MIC) required to reduce virus-induced cytopathogenicity by 50% against Polio virus-1 in HeLa cells; format: functional; conditions: Homo sapiens
[38] = test system: WI-38; experiment: Minimum inhibitory concentration (MIC) required to reduce virus-induced cytopathogenicity by 50% against Rhinovirus-1A in human diploid (WI-38)cells; format: functional
[39] = organism: Oryctolagus cuniculus; experiment: Minimum inhibitory concentration (MIC) required to reduce virus-induced cytopathogenicity by 50% against Vesicular stomatitis virus in primary rabbit kidney cells; format: functional
[40] = Chlorocebus sabaeus, read-out: MIC
[41] = Oryctolagus cuniculus, read-out: MIC

Structure (SMILES): Nc1ncnc2c1ncn2[C@@H]1O[C@H](CO)[C@H](O)[C@@H]1O (stereo in doubt; 8)
- MCC [1]: > 400 µg/mL
- MCC [2]: > 400 µg/mL
- Virus yield [3]: 7 log pfu ml-1
- Virus yield [4]: 6.7 log pfu ml-1
- MIC [5]: > 200 µg/mL
- No. of mice [6]: 6
- No. of mice [7]: 3
- No. of mice [8]: 10
- Survival rate [9]: 3
- MIC [10]: 70 µg/mL (≈ 262 µM)
- Survival rate [11]: 4
- Virus yield [12]: 3.8 log pfu ml-1
- Virus yield [13]: 5.4 log pfu ml-1
- MIC ([14]; Homo sapiens, read-out: MIC): > 200 µg/mL
- MIC [15, 40]: 70 µg/mL (≈ 262 µM)
- MIC [16]: > 400 µg/mL
- Virus yield [17]: 5.1 log pfu ml-1
- MIC [18]: > 400 µg/mL
- Virus yield [19]: 6.2 log pfu ml-1
- Virus yield [20]: 6.8 log pfu ml-1
- Virus yield [21]: 6.6 log pfu ml-1
- MIC [22]: > 400 µg/mL
- MCC [23]: > 400 µg/mL
- No. of mice [24]: 4
- MIC [25]: 100 µg/mL (≈ 374 µM)
- MIC [26]: 70 µg/mL (≈ 262 µM)
- MIC [27]: > 400 µg/mL
- Virus yield [28]: 5.3 log pfu ml-1
- Virus yield [29]: 5.1 log pfu ml-1
- MIC [30, 40]: > 400 µg/mL
- No. of mice [31]: 7
- No. of mice [32]: 10
- Virus yield [33]: 6.8 log pfu ml-1
- MCC [34]: > 400 µg/mL
- Virus yield [35]: 5.5 log pfu ml-1

Structure (SMILES): Nc1ncnc2c1ccn2[C@@H]1O[C@H](CO)[C@@H](O)[C@H]1O [TUBERCIDIN]
- MCC [1]: > 1 µg/mL
- MCC [2]: > 4 µg/mL
- MIC [10, 40]: > 0.1 µg/mL
- MIC ([14]; Homo sapiens, read-out: MIC): > 4 µg/mL
- MIC [15, 40]: 0.2 µg/mL (≈ 0.751 µM)
- MIC [16]: > 0.4 µg/mL
- MIC [36]: 0.07 µg/mL (≈ 0.263 µM)
- MIC [18]: 0.2 µg/mL (≈ 0.751 µM)
- MIC [37]: 0.07 µg/mL (≈ 0.263 µM)
- MIC [22]: 0.2 µg/mL (≈ 0.751 µM)
- MCC [23]: 1 µg/mL
- MIC [25, 41]: > 0.4 µg/mL
- MIC [26, 41]: 0.2 µg/mL (≈ 0.751 µM)
- MIC [38]: 0.02 µg/mL (≈ 0.0751 µM)
- MIC [27]: > 0.4 µg/mL
- MIC [30, 40]: > 0.1 µg/mL
- MCC [34]: > 0.4 µg/mL
- MIC [39]: 0.07 µg/mL (≈ 0.263 µM)

Structure (SMILES): Nc1ccn([C@@H]2O[C@H](CO)[C@H](O)[C@@H]2O)c(=O)n1
- MCC [1]: > 200 µg/mL
- MCC [2]: > 200 µg/mL
- MIC [10, 40]: > 100 µg/mL
- MIC ([14]; Homo sapiens, read-out: MIC): > 200 µg/mL
- MIC [15, 40]: > 200 µg/mL
- MIC [16]: > 200 µg/mL
- MIC [18]: > 200 µg/mL
- MIC [22]: > 100 µg/mL
- MCC [23]: > 200 µg/mL
- MIC [25, 41]: > 200 µg/mL
- MIC [26, 41]: 70 µg/mL (≈ 288 µM)
- MIC [38]: > 200 µg/mL
- MIC [27]: > 200 µg/mL
- MIC [30, 40]: > 200 µg/mL
- MCC [34]: > 200 µg/mL

Structure (SMILES): Nc1nc2c(ncn2[C@@H]2O[C@H](CO)[C@H](O)[C@@H]2O)c(=O)[nH]1
- MCC [1]: > 400 µg/mL
- MCC [2]: > 400 µg/mL
- MIC [10, 40]: > 400 µg/mL
- MIC ([14]; Homo sapiens, read-out: MIC): > 400 µg/mL
- MIC [15, 40]: > 400 µg/mL
- MIC [16]: > 400 µg/mL
- MIC [18]: > 400 µg/mL
- MIC [22]: > 400 µg/mL
- MCC [23]: > 400 µg/mL
- MIC [25, 41]: 400 µg/mL (≈ 1410 µM)
- MIC [26, 41]: 100 µg/mL (≈ 353 µM)
- MIC [38]: > 400 µg/mL
- MIC [27]: > 400 µg/mL
- MIC [30, 40]: > 400 µg/mL
- MCC [34]: > 400 µg/mL

Structure (SMILES): Nc1nc2c(ncn2[C@H]2O[C@H](CO)[C@H](O)[C@@H]2O)c(=O)[nH]1
- MCC [1]: > 400 µg/mL
- MCC [2]: > 400 µg/mL
- MIC [10, 40]: > 400 µg/mL
- MIC ([14]; Homo sapiens, read-out: MIC): 200 µg/mL (≈ 706 µM)
- MIC [15, 40]: > 400 µg/mL
- MIC [16]: > 400 µg/mL
- MIC [18]: > 400 µg/mL
- MIC [22]: > 400 µg/mL
- MCC [23]: > 400 µg/mL
- MIC [25, 41]: > 400 µg/mL
- MIC [38]: > 400 µg/mL
- MIC [27]: > 400 µg/mL
- MIC [30, 40]: > 400 µg/mL
- MCC [34]: > 400 µg/mL

Structure (SMILES): Nc1ncnc2c1ncn2[C@@H]1O[C@H](CO)[C@H](O)[C@@H]1O (stereo in doubt; 22d)
- MIC [10]: >200 µg/mL
- MIC [14]: >400 µg/mL
- MIC [15]: 100 µg/mL (≈ 374 µM)
- MIC [25]: >400 µg/mL
- MIC [26]: 200 µg/mL (≈ 748 µM)
- MIC [38]: > 400 µg/mL
- MIC [30]: >200 µg/mL
